# Experimental data published in ChEMBL document CHEMBL6134859, “Unlocking the antiviral arsenal: Structure-guided optimization of small-molecule inhibitors against RSV and hCoV-229E” (Eur J Med Chem, 2025).
# Test: Kinetic solubility of the compound in 1%DMSO/PBS measured after 5 mins
# Type: physicochemical
# Details: read-out: Kinetic_solubility
row,Structure (SMILES),solubility kinetic at 5 min [µM]
1,COc1ccc(C(C)=O)cc1COc1ncnc2c(-c3ccncc3)cccc12,32
2,COc1ccc(C(C)=O)cc1COc1ncnc2cccc(Cl)c12,54
3,COc1ccc(C(C)=O)cc1CNc1ncnc2c(Cl)cc(Cl)cc12,> 100
4,COc1ccc(C(C)=O)cc1COc1ncnc2c(C)cccc12,57
5,Clc1cc(Cl)c2ncnc(OCc3ccc(Br)cc3)c2c1,12
6,COC(=O)c1ccccc1COc1ncnc2c(Cl)cc(Cl)cc12,22
7,CCc1ccc(OC)c(COc2ncnc3c(Cl)cc(Cl)cc23)c1,34
8,COc1ccc(C(C)=O)cc1C(=O)Nc1ncnc2c(Cl)cc(Cl)cc12,> 100
9,COc1ccc(C(C)=O)cc1COc1ncnc2c(F)cccc12,> 100
10,COc1ccc(C(C)=O)cc1CSc1ncnc2c(Cl)cc(Cl)cc12,17
11,Clc1cc(Cl)c2ncnc(OCc3cccc4c3OCO4)c2c1,21
12,O=C(O)c1cccc(COc2ncnc3c(Cl)cc(Cl)cc23)c1,> 100
13,COc1ccc(C(C)=O)cc1COc1ncnc2c(Cl)ccc(Cl)c12,37
14,COc1cccc(COc2ncnc3c(Cl)cc(Cl)cc23)c1,22
15,COc1ccc(C(C)=O)cc1COc1ncnc2c(S(C)(=O)=O)cccc12,> 100
16,COc1ccc(C(C)=O)cc1COc1ncnc2c(Br)cccc12,41
17,COc1ccc(C(C)=O)cc1COc1ncnc2c(OCc3cc(C(C)=O)ccc3OC)cccc12,53
18,Clc1cc(Cl)c2ncnc(OCc3ccccc3-c3ccccc3)c2c1,16
19,COc1ccc(C(C)=O)cc1COc1ncnc2ccc(Cl)cc12,60
20,COc1ccc(C(C)=O)cc1COc1ncnc2c(C#N)cccc12,> 100
21,Clc1cc(Cl)c2ncnc(OCc3ccccc3Br)c2c1,20

row,Structure (SMILES),solubility kinetic at 5 min [µM]
1,COC(=O)c1cccc2c(OCc3cc(C(C)=O)ccc3OC)ncnc12,> 100
2,COc1ccc(C(C)=O)cc1COc1ncnc2cc(Cl)ccc12,26
3,Clc1cc(Cl)c2ncnc(OCc3ccccc3-c3cccnc3)c2c1,60
4,O=C(O)c1ccccc1COc1ncnc2c(Cl)cc(Cl)cc12,> 100
5,COc1ccc(C(C)=O)cc1COc1ncnc2c(-c3ccccc3)cccc12,35
6,CC(=O)c1cccc(COc2ncnc3c(Cl)cc(Cl)cc23)c1,46
7,COc1ccc(C(C)=O)cc1COc1ncnc2c(Cl)cc(C)cc12,66
8,O=C(O)c1ccc(COc2ncnc3c(Cl)cc(Cl)cc23)cc1,> 100
9,COc1ccc(C(C)=O)cc1COc1ncnc2c(Cl)cc(Cl)cc12,62
10,COCCOc1ccccc1COc1ncnc2c(Cl)cc(Cl)cc12,42
11,COc1ccc(C(C)=O)cc1COc1ncnc2c(C)cc(C)cc12,> 100
12,Cc1ccc(COc2ncnc3c(Cl)cc(Cl)cc23)cc1,12
13,COc1ccc(C(C)=O)cc1COc1ncnc2c(C)cc(Cl)cc12,50
14,Clc1ccc(COc2ncnc3c(Cl)cc(Cl)cc23)cc1,18
15,CCc1ccccc1COc1ncnc2c(Cl)cc(Cl)cc12,28
16,COc1ccc(C(C)=O)cc1COc1ncnc2c(C3CC3)cccc12,27
17,COc1cccc(OC)c1COc1ncnc2c(Cl)cc(Cl)cc12,21
18,COc1cc(COc2ncnc3c(Cl)cc(Cl)cc23)cc(C(C)=O)c1,21
19,COc1ccc(C(C)=O)cc1COc1ncnc2c(N3CCOCC3)cccc12,> 100
20,COc1ccc(COc2ncnc3c(Cl)cc(Cl)cc23)cc1C(C)=O,39
21,COc1ccc(C(C)=O)cc1COc1ncnc2cc(Cl)cc(Cl)c12,41

row,Structure (SMILES),solubility kinetic at 5 min [µM]
1,COc1ccc(C(C)=O)cc1COc1ncnc2c(O)cccc12,55
2,Fc1ccc(COc2ncnc3c(Cl)cc(Cl)cc23)cc1,22
3,COc1ccc(C(C)=O)cc1COc1ncnc2c(C(F)(F)F)cccc12,33
4,COc1cccc(C(C)=O)c1COc1ncnc2c(Cl)cc(Cl)cc12,44
5,COc1ccc(COc2ncnc3c(Cl)cc(Cl)cc23)cc1,44
6,COc1cc(C(C)=O)ccc1COc1ncnc2c(Cl)cc(Cl)cc12,26
7,N#Cc1ccc(COc2ncnc3c(Cl)cc(Cl)cc23)cc1,25
8,CC(=O)c1ccc(-c2cccnc2)c(COc2ncnc3c(Cl)cc(Cl)cc23)c1,> 100
9,COc1ccc(C(C)=O)cc1COc1ncnc2c(Cl)cccc12,58
10,COc1ccc(C(C)=O)cc1COc1ncnc2c(OC)cccc12,> 100
11,Fc1ccccc1COc1ncnc2c(Cl)cc(Cl)cc12,26
12,Clc1cc(Cl)c2ncnc(OCc3ccccc3)c2c1,25
13,COC(=O)c1ccc(COc2ncnc3c(Cl)cc(Cl)cc23)cc1,25
14,COc1c(COc2ncnc3c(Cl)cc(Cl)cc23)cccc1C(C)=O,57
15,COc1ccccc1COc1ncnc2c(Cl)cc(Cl)cc12,32
16,CCc1ccc(C(C)=O)cc1COc1ncnc2c(Cl)cc(Cl)cc12,21
17,FC(F)(F)c1ccc(COc2ncnc3c(Cl)cc(Cl)cc23)cc1,18
18,COc1ccccc1CSc1ncnc2c(Cl)cc(Cl)cc12,24
19,CC(=O)c1ccccc1COc1ncnc2c(Cl)cc(Cl)cc12,43
